Counter-ions that a name gives are not always drawn. Like-named read-outs stand apart in the source and are kept apart here.
Test system: panel of 55 breast cancer cell lines
Experiment: Cell growth inhibition assay (Cell Titer Glo, 72 h, 9 doses; GI50, TGI, LC50)
Format: cell-based, human
Details: Homo sapiens, read-out: GI50 (converted)
[1] = AU565, AU565 cell line, censored GI50 values
[2] = BT-20, BT20 cell line, censored GI50 values
[3] = CAMA-1, CAMA1 cell line, censored GI50 values
[4] = HCC38, HCC38 cell line, censored GI50 values
[5] = HCC70, HCC70 cell line, censored GI50 values
[6] = HCC1143, HCC1143 cell line, censored GI50 values
[7] = HCC1187, HCC1187 cell line, censored GI50 values
[8] = HCC1419, HCC1419 cell line, censored GI50 values
[9] = HCC2185 cell line, censored GI50 values
[10] = MDA-MB-134-VI, MDAMB134VI cell line, censored GI50 values
[11] = MDA-MB-175-VII, MDAMB175VII cell line, censored GI50 values
[12] = MDA-MB-231, MDAMB231 cell line, censored GI50 values
[13] = MDA-MB-361, MDAMB361 cell line, censored GI50 values
[14] = MDA-MB-415, MDAMB415 cell line, censored GI50 values
[15] = MDA-MB-453, MDAMB453 cell line, censored GI50 values
[16] = MDA-MB-468, MDAMB468 cell line, censored GI50 values
[17] = SUM52PE, SUM52PE cell line, censored GI50 values
[18] = SUM149PT, SUM149PT cell line, censored GI50 values
[19] = SUM1315MO2, SUM1315MO2 cell line, censored GI50 values
[20] = SUM-159-PT, SUM159PT cell line, censored GI50 values
[21] = T47D, T47D cell line, censored GI50 values
[22] = UACC-812, UACC812 cell line, censored GI50 values
[23] = ZR-75-1, ZR751 cell line, censored GI50 values
[24] = BT-474, BT474 cell line, censored GI50 values
[25] = BT-483, BT483 cell line, censored GI50 values
[26] = HCC1395, HCC1395 cell line, censored GI50 values
[27] = HCC1428, HCC1428 cell line, censored GI50 values
[28] = HCC1500, HCC1500 cell line, censored GI50 values
[29] = HCC1806, HCC1806 cell line, censored GI50 values
[30] = HCC1937, HCC1937 cell line, censored GI50 values
[31] = HCC1954, HCC1954 cell line, censored GI50 values
[32] = SK-BR-3, SKBR3 cell line, censored GI50 values

Cc1cncc2cccc(S(=O)(=O)N3CCCN(C(=O)CN)C[C@@H]3C)c12 [Glycyl-H-1152]
GI50 [1]: 7.24 µM | GI50 (AU565, cell line AU565): 7.24 µM | GI50 [2]: 7.08 µM | GI50 (BT-20, cell line BT20): 7.08 µM | GI50 (BT-474, cell line BT474): 66.1 µM | GI50 (BT-483, cell line BT483): 44.7 µM | GI50 [3]: 8.13 µM | GI50 (CAMA-1, cell line CAMA1): 8.13 µM | GI50 [4]: 1.02 µM | GI50 (HCC38, cell line HCC38): 1.02 µM | GI50 [5]: 0.813 µM | GI50 (HCC70, cell line HCC70): 0.813 µM | GI50 [6]: 15.8 µM | GI50 (HCC1143, cell line HCC1143): 15.8 µM | GI50 [7]: 0.832 µM | GI50 (HCC1187, cell line HCC1187): 0.832 µM | GI50 [8]: 17 µM | GI50 (HCC1419, cell line HCC1419): 17 µM | GI50 (HCC1428, cell line HCC1428): 50.1 µM | GI50 (HCC1500, cell line HCC1500): 66.1 µM | GI50 (HCC1937, cell line HCC1937): 66.1 µM | GI50 (HCC1954, cell line HCC1954): 33.1 µM | GI50 [9]: 2.88 µM | GI50 (MCF7, cell line MCF7): 21.4 µM | GI50 [10]: 1.17 µM | GI50 [11]: 33.1 µM | GI50 [12]: 22.9 µM | GI50 (MDA-MB-231, cell line MDAMB231): 22.9 µM | GI50 [13]: 33.1 µM | GI50 (MDA-MB-361, cell line MDAMB361): 33.1 µM | GI50 [14]: 33.1 µM | GI50 (MDA-MB-415, cell line MDAMB415): 33.1 µM | GI50 (MDA-MB-436, cell line MDAMB436): 43.7 µM | GI50 [15]: 28.2 µM | GI50 (MDA-MB-453, cell line MDAMB453): 28.2 µM | GI50 [16]: 2.04 µM | GI50 (MDA-MB-468, cell line MDAMB468): 2.04 µM | GI50 (SK-BR-3, cell line SKBR3): 46.8 µM | GI50 [17]: 9.12 µM | GI50 (SUM52PE, cell line SUM52PE): 9.12 µM | GI50 [18]: 30.2 µM | GI50 (SUM149PT, cell line SUM149PT): 30.2 µM | GI50 [19]: 11 µM | GI50 [20]: 1.74 µM | GI50 (SUM-159-PT, cell line SUM159PT): 1.74 µM | GI50 [21]: 15.1 µM | GI50 (T47D, cell line T47D): 15.1 µM | GI50 [22]: 38 µM | GI50 (UACC-812, cell line UACC812): 38 µM | GI50 [23]: 3.55 µM | GI50 (ZR-75-1, cell line ZR751): 3.55 µM | GI50 (ZR-75B, cell line ZR75B): 66.1 µM | GI50 (cell line HCC2185): 2.88 µM | GI50 (cell line HCC3153): 33.1 µM | GI50 (cell line MDAMB134V): 1.17 µM | GI50 (cell line MDAMB175V): 33.1 µM | GI50 (cell line SUM1315MO): 11 µM

CCCCCN(C)CCC(O)(P(=O)(O)O)P(=O)(O)O [Ibandronate sodium salt]
GI50 [1]: 182 µM | GI50 (AU565, cell line AU565): 182 µM | GI50 [2]: 20.4 µM | GI50 (BT-20, cell line BT20): 20.4 µM | GI50 [24]: 105 µM | GI50 [25]: 57.5 µM | GI50 [3]: 162 µM | GI50 [4]: 57.5 µM | GI50 [5]: 69.2 µM | GI50 [6]: 43.7 µM | GI50 [7]: 170 µM | GI50 [26]: 7.41 µM | GI50 [8]: 7.59 µM | GI50 [27]: 129 µM | GI50 [28]: 38 µM | GI50 [29]: 33.1 µM | GI50 [30]: 40.7 µM | GI50 [31]: 55 µM | GI50 [9]: 15.1 µM | GI50 (HCC3153 cell line, censored GI50 values): 79.4 µM | GI50 [10]: 69.2 µM | GI50 [11]: 33.9 µM | GI50 [12]: 74.1 µM | GI50 [14]: 49 µM | GI50 [15]: 110 µM | GI50 [16]: 93.3 µM | GI50 [32]: 89.1 µM | GI50 [17]: 35.5 µM | GI50 [18]: 174 µM | GI50 (SUM225CWN, SUM225CWN cell line, censored GI50 values): 501 µM | GI50 [19]: 50.1 µM | GI50 [20]: 42.7 µM | GI50 [21]: 34.7 µM | GI50 [22]: 155 µM | GI50 [23]: 69.2 µM | GI50 (ZR-75B, ZR75B cell line, censored GI50 values): 141 µM

COc1cc2ncnc(Nc3ccc(F)c(Cl)c3)c2cc1OCCCN1CCOCC1 [Iressa]
GI50 (600MPE cell line, censored GI50 values): 7.24 µM | GI50 [1]: 1.07 µM | GI50 [24]: 0.724 µM | GI50 [25]: 6.17 µM | GI50 (BT-549, BT549 cell line, censored GI50 values): 15.1 µM | GI50 [5]: 17.4 µM | GI50 [6]: 11.7 µM | GI50 [26]: 7.08 µM | GI50 [8]: 2.75 µM | GI50 [27]: 10.7 µM | GI50 [28]: 8.13 µM | GI50 [29]: 4.68 µM | GI50 [30]: 8.32 µM | GI50 [31]: 2.04 µM | GI50 [9]: 9.33 µM | GI50 (MDA-MB-157, MDAMB157 cell line, censored GI50 values): 15.1 µM | GI50 [11]: 0.209 µM | GI50 [13]: 6.46 µM | GI50 [14]: 7.41 µM | GI50 [15]: 7.41 µM | GI50 [32]: 2.82 µM | GI50 [17]: 7.94 µM | GI50 [18]: 2.88 µM | GI50 (SUM185PE, SUM185PE cell line, censored GI50 values): 20.9 µM | GI50 [19]: 2.95 µM | GI50 [20]: 8.51 µM | GI50 [21]: 15.8 µM | GI50 (UACC-893, UACC893 cell line, censored GI50 values): 1.15 µM
